From publication PMC11876671, “Investigating blood–brain barrier penetration and neurotoxicity of natural products for central nervous system drug development” (Scientific Reports, 2025)
Like-named read-outs stand apart in the source and are kept apart here.

Key:
[1] = system: GFP-labeled iPSC-derived human cortical glutamatergic neurons; assay: cells; type: cell-based; conditions: Homo sapiens, Neuron; Table S1; total neurite length, 48 hr; head prints no unit, µM per Table 1 and Fig. 5; read-out: TNL AC50 (48 hr)
[2] = for PAMPA-BBB Pe(10^-6 cm/sec): Table S3: compounds exhibiting low PAMPA-BBB permeability
in vitro = conditions: PAMPA, PAMPA-BBB Pe
[3] = system: GFP-labeled iPSC-derived human cortical glutamatergic neurons; assay: cells; conditions: Neuron, 48 h, read-out: Viability AC50 (48hr)
[4] = Table S2: compounds exhibiting moderate to high PAMPA-BBB permeability
[5] = Table S1, 60 min, room temperature, 0.05 mM

| Compound | AC50 [1] [µM] | Papp (in vitro; [5]) [×10⁻⁶ cm/s] | further results |
| --- | --- | --- | --- |
| COc1ccc(/C=C/C(=O)c2ccc(O)cc2O)cc1OC [2',4'-DIHYDROXY-3,4-DIMETHOXYCHALCONE] | 5.97 | 312 | PAMPA-BBB Pe [2, 4]: 312 10^-6 cm/sec |
| COc1cc(C)cc(O)c1 [3-methoxy-5-methylphenol] | 13.4 | 49.7 | – |
| C/C(=C\COc1c2ccoc2cc2oc(=O)ccc12)CCC(O)C(C)(C)O (stereo not shown) [6,7-dihydroxy Bergamottin] | 6.03 | 54.7 | – |
| COc1cc([C@@H]2c3cc4c(cc3C[C@H]3COC(=O)[C@@H]32)OCO4)cc(OC)c1O [(5R,5aR,8aR)-5-(4-hydroxy-3,5-dimethoxyphenyl)-5,8,8a,9-tetrahydrofuro[3',4':6,7]naphtho[2,3-d][1,3]dioxol-6(5aH)-one] | 0.585 | 11.2 | AC50 [3]: 0.656 µM; Papp (in vitro; [4]): 11 ×10⁻⁶ cm/s |
| COC1=C[C@@]23CCN(C)[C@H](Cc4ccc(OC)c(O)c42)C3=CC1=O [(-)-Sinoacutine] | 15.2 | 11.5 | – |
| COc1cc(C2c3cc4c(c(O)c3CC3COC(=O)C32)OCO4)cc(OC)c1O (stereo not drawn) [Alpha-Peltatin] | 0.003 | 14.2 | AC50 [3]: 0.002 µM |
| CSC(=S)NCc1c[nH]c2ccccc12 [BRASSININ] | 6.34 | 267 | PAMPA-BBB Pe [2, 4]: 267 10^-6 cm/sec |
| COC(=O)[C@@H]1[C@@H]2C[C@H]3c4[nH]c5ccccc5c4CCN3C[C@@H]2CC[C@@H]1O [Beta-yohimbine] | 11.8 | – | Papp (in vitro): 41.8 ×10⁻⁶ cm/s |
| OCC=Cc1ccccc1 [Cinnamyl alcohol] | 5.95 | 97.5 | PAMPA-BBB Pe [2, 4]: 97 10^-6 cm/sec; Papp (in vitro; [4]): 69 ×10⁻⁶ cm/s |
| S=c1ccss1 [D3T, 3H-1,2-dithiole-3-thione] | 51.2 | 97.8 | – |
| COc1cc2c(c(OC)c1OC)-c1c(cc(OC)c(OC)c1OC)C[C@H](C)[C@H](C)C2 [Deoxyschizandrin] | 15.9 | 171 | – |
| O=c1c(-c2ccc(O)cc2)coc2cc(O)cc(O)c12 [Genistein] | 33.4 | 35.4 | Papp (in vitro; [4]): 35 ×10⁻⁶ cm/s |
| CCOc1ccc(O)cc1 [Hydroquinone monoethyl ether] | 13.6 | 35 | – |
| CC(C)=CCOc1c2occc2cc2ccc(=O)oc12 [Imperatorin] | 16.7 | 160 | – |
| CO[C@@H]1[C@@H](O[C@@H]2O[C@H](C)[C@@H](O[C@H]3C[C@@](C)(O)[C@@H](OC(=O)CC(C)C)[C@H](C)O3)[C@H](N(C)C)[C@H]2O)[C@@H](CC=O)C[C@@H](C)C(=O)/C=C/[C@@H]2O[C@H]2C[C@@H](C)OC(=O)C[C@H]1OC(C)=O [Magnamycin A/Carbomycin A] | 27.1 | 31.9 | Papp (in vitro; [4]): 32 ×10⁻⁶ cm/s |
| CCCCCC(=O)Cc1cc(O)cc(O)c1C(=O)Oc1cc(CC(=O)CCCCC)c(C(=O)O)c(OC)c1 [NCGC00095554-03] | 6.66 | – | PAMPA-BBB Pe [2, 5]: >1000 10^-6 cm/sec; PAMPA-BBB Pe [2, 4]: >1000 10^-6 cm/sec |
| CC=C1CN2CC[C@]34C(=C(C=O)[C@@H]1C[C@H]23)Nc1c(O)cccc14 [NCGC00160220-01] | 0.157 | 18.2 | PAMPA-BBB Pe [2, 4]: 18 10^-6 cm/sec |
| CC1(C)OC1COc1c2occc2cc2ccc(=O)oc12 (stereo not shown) [NCGC00160222-01] | 24.5 | 210 | – |
| CN1CCC2=C[C@@H](O)[C@@H]3OC(=O)c4cc5c(cc4[C@H]3C21)OCO5 (stereo partly shown) [NCGC00160234-01] | 2.22 | 22.3 | Papp (in vitro; [4]): 22 ×10⁻⁶ cm/s |
| CC(=O)c1c(O)cccc1O [NCGC00166008-01] | 1.98 | 44.7 | – |
| CC1(C)C=Cc2c(ccc(C(=O)/C=C/c3ccccc3)c2O)O1 [NCGC00187466-01] | 2.18 | 10.2 | – |
| NC(=O)Nc1ccc(Cl)c(Cl)c1 [NCGC00255466-01] | – | – | PAMPA-BBB Pe [2, 4]: 148 10^-6 cm/sec |
| CC(=O)NCCc1c[nH]c2ccccc12 [NCGC00260786-01] | – | – | PAMPA-BBB Pe(10^-6 cm/sec) [2]: 5.7 10^-6 cm/sec |
| CN(N=O)c1cc(O)ccc1O [NCGC00261088-01] | – | – | PAMPA-BBB Pe(10^-6 cm/sec) [2]: <1 10^-6 cm/sec |
| COc1cc(C(O)CO)ccc1OS(=O)(=O)[O-].[K+] (stereo not shown) [NCGC00261311-01] | – | – | PAMPA-BBB Pe(10^-6 cm/sec) [2]: <1 10^-6 cm/sec |
| C=C/C(C)=C/[C@@]1(C)SC(=O)C(C)=C1O [NCGC00261593-01] | – | – | PAMPA-BBB Pe(10^-6 cm/sec) [2]: <1 10^-6 cm/sec |
| c1ccc2c3c([nH]c2c1)[C@H]1[C@@H]2CC[C@@H]([C@@H]4CCCN[C@@H]42)N1CC3 [NCGC00262532-02] | – | – | PAMPA-BBB Pe(10^-6 cm/sec) [2]: <1 10^-6 cm/sec |
| C=CC(O)C1OC1C=CC1OC1C(C)O (stereo not shown) [NCGC00263647-01] | – | – | PAMPA-BBB Pe(10^-6 cm/sec) [2]: <1 10^-6 cm/sec |
